From patent US9073916B2, “Prodrug forms of kinase inhibitors and their use in therapy” (AUCKLAND UNISERVICES LIMITED, priority 2009, dated 2015)
Like-named read-outs stand apart in the source and are kept apart here.

Assays:
[1] = tested on: SKBR3 cells; assay: Cellular growth inhibition (sulforhodamine B); type: cell-based, Human; details: Table 3; for IC50: Homo sapiens, SK-BR-3
[2] = biological target: erbB2 (Homo sapiens, UniProt P04626); assay: Isolated enzyme inhibition (Invitrogen Z′-LYTE kinase assay); type: biochemical; details: 10 μM ATP, duplicate
Chain of erbB2 (P04626 23-1255): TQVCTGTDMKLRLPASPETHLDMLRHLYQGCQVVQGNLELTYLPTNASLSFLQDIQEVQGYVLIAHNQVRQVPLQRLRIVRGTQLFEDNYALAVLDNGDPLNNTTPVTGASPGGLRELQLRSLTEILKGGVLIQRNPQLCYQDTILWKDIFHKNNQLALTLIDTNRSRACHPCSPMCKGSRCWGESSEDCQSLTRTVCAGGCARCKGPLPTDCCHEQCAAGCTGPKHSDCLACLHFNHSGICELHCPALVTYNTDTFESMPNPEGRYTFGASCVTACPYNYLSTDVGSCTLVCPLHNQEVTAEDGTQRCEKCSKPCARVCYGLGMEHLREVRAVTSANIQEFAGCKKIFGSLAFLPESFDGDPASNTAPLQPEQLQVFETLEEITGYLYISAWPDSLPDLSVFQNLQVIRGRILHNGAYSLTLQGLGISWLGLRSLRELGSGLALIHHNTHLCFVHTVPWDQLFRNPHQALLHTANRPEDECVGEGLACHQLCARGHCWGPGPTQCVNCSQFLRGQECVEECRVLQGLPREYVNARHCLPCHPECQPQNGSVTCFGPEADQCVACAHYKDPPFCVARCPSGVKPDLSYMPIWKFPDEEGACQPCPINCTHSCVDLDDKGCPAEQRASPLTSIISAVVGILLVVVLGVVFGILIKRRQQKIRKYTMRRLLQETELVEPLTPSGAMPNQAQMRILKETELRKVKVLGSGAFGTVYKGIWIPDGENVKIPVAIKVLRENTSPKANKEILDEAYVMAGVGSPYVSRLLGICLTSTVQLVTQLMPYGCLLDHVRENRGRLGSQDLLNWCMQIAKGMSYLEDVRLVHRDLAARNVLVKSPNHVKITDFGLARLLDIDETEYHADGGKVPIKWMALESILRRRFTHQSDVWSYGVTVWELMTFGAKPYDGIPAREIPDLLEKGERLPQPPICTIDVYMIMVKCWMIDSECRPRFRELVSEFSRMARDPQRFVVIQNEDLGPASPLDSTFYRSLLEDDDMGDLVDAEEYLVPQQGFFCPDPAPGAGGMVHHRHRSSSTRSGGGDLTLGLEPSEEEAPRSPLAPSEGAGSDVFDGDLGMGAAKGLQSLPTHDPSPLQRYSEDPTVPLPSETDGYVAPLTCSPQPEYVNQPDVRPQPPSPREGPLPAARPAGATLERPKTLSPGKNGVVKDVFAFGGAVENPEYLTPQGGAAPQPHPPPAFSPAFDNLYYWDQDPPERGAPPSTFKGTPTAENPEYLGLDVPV
Method: (§1) The compounds of Table 1 were tested for their ability to inhibit erbB1, erbB1^T790M, erbB2 and erbB4 in an isolated enzyme assay. This assay utilises synthetic FRET-capable peptide substrates. Phosphorylation of these substrates protects them from cleavage by a development reagent, leaving their FRET-capabilities intact. […] As a further consideration, for compounds capable of irreversible inhibition of an enzyme, the IC50 reflects both reversible and irreversible binding to the enzyme.

[3] = tested on: A431 cells; assay: Cellular growth inhibition (sulforhodamine B); details: for IC50: Homo sapiens; for A431 Deact. (fold reduction in oxic growth inhibition relative to parent kinase inhibitor) / A431 HCR (Hypoxic Cytotoxicity Ratio): Table 3
[4] = biological target: T1, erbB1 (Homo sapiens, UniProt P00533); assay: Isolated enzyme inhibition (Invitrogen Z′-LYTE kinase assay); type: biochemical; details: 10 μM ATP, duplicate
T1 sequence (P00533 25-1210): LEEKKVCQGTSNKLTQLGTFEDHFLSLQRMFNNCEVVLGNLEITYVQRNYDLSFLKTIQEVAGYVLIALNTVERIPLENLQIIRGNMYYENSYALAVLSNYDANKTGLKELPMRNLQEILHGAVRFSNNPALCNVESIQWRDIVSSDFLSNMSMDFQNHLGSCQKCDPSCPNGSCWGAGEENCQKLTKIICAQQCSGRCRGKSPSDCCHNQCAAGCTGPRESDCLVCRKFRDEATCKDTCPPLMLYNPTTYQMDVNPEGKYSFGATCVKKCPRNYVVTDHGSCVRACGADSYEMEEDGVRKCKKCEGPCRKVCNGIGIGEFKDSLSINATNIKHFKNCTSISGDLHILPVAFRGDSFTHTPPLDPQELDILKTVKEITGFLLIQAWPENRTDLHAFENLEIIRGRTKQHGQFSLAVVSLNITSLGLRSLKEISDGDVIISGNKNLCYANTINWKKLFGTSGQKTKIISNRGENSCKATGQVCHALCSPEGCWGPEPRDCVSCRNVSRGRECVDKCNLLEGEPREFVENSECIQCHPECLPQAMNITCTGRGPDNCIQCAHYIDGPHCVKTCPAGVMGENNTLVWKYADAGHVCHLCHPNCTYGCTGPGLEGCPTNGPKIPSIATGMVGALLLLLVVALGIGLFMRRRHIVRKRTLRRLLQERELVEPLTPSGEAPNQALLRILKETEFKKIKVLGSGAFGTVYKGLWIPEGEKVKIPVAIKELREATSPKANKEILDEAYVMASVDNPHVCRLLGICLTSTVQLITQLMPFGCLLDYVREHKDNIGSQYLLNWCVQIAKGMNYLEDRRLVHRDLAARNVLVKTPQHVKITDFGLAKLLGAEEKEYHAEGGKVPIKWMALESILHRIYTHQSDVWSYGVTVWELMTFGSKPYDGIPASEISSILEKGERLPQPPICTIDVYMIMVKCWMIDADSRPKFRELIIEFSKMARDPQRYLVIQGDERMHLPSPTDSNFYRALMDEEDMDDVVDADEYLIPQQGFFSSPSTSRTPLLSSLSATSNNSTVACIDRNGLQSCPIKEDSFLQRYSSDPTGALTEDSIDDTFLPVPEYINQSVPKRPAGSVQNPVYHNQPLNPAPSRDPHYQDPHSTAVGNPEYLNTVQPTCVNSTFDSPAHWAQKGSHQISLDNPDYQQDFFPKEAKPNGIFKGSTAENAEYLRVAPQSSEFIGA

[5] = Steady state radiolytic reduction by the CO2.− radical with HPLC-MS; type: physicochemical; details: for Detection of MNA (methyl nitroaromatic) / release of effector following 1-electron reduction: HPLC-MS; for release of effector following 1-electron reduction: steady state radiolysis
[6] = Pulse radiolysis (E(1) and fragmentation rate); type: physicochemical; details: determined against methylviologen
Method: (§2) Pulse radiolysis was used to monitor the 1-electron reduction and stability of the compounds in real time. A linear accelerator delivering short pulses of high energy electrons (2-3 Gy in 200 ns of 4 MeV) equipped with a fast spectophotometric detection system was used. (Anderson et al, J. Phys. Chem. A, 101, 9704-9709, 1997). […] The rate of fragmentation was determined by analysing kinetic transients at wavelengths corresponding to the formation of the benzyl-type radical of the trigger moiety. (Bays et al, J. Am. Chem. Soc., 105, 320-324, 1983; Anderson et al, J. Phys. Chem. A, 101, 9704-9709, 1997).
The pulse radiolysis method, for example, measures the equilibrium constant between the radical anions of the prodrugs, formed upon their 1-electron reduction, and reference standards such as viologen and quinone compounds, from which data the E(1) values of the compounds can be calculated. (Meisel and Czapski. J. Phys. Chem., 1975, 79, 1503-1509.) The E(1) values of prodrugs 17-22, 140-145 were measured by the pulse radiolysis method and determined to range between −0.493V and −0.388V (Table 4).
The rate constants for fragmentation, kfrag, of the 1-electron reduced prodrugs can be measured using pulse radiolysis to observe the time-resolved formation of the absorption spectrum of the benzyl-type radical produced upon fragmentation of the radical anion. (Anderson et al, J. Phys. Chem. A, 1997, 101, 9704-9709.) The kfrag values of prodrugs 19, 20, 140, 141 and 143-145 were measured by pulse radiolysis and are presented in Table 4.
as §2, with “one-electron” for “1-electron”, “prodrug 42” for “the compounds”, “used.” for “used. (Anderson et al, J. Phys. Chem. A, 101, 9704-9709, 1997).”, “1997.)” for “1997).”

[7] = biological target: T1, erbB1; assay: Cellular erbB1 inhibition under oxic and hypoxic conditions in A431 cells; type: cell-based; details: 1 μM, 4 hour exposure oxic or hypoxic, washed, EGF stimulated
Method: Human A431 epidermoid carcinoma cells were seeded at 400,000 cells/well in a 6 well plate in alpha minimal essential media (αMEM) containing 10% fetal bovine serum, 10 mM D-Glucose and 0.2 mM 2′-deoxycytidine. A431 cells were allowed to attach for 90 minutes under oxic or anoxic conditions, then exposed to test compounds at a concentration of 1 uM for a further 4 hours under oxic or anoxic conditions. The cells were then washed free of test compounds three times using serum free media and then returned to the incubator under oxic conditions overnight. The cells were then stimulated with 100 ng/mL EGF for 15 minutes before the medium was aspirated and the cells were washed with ice-cold PBS.

[8] = tested on: SW620 cells; assay: Cellular growth inhibition (sulforhodamine B); type: cell-based, Human; details: Table 3; for IC50: Homo sapiens, SW-620
[9] = biological target: T1, erbB1; assay: Inhibition of erbB1 autophosphorylation in EGF-stimulated intact A431 cells (Western blot); details: for Deact. (fold reduction in cellular erbB1 inhibition relative to the parent kinase inhibitor): Table 2
[10] = biological target: erbB1^T790M (Homo sapiens, UniProt P00533, T790M); assay: Isolated enzyme inhibition (Invitrogen Z′-LYTE kinase assay); type: biochemical; details: 10 μM ATP, duplicate
Chain of erbB1^T790M (P00533 25-1210 T790M): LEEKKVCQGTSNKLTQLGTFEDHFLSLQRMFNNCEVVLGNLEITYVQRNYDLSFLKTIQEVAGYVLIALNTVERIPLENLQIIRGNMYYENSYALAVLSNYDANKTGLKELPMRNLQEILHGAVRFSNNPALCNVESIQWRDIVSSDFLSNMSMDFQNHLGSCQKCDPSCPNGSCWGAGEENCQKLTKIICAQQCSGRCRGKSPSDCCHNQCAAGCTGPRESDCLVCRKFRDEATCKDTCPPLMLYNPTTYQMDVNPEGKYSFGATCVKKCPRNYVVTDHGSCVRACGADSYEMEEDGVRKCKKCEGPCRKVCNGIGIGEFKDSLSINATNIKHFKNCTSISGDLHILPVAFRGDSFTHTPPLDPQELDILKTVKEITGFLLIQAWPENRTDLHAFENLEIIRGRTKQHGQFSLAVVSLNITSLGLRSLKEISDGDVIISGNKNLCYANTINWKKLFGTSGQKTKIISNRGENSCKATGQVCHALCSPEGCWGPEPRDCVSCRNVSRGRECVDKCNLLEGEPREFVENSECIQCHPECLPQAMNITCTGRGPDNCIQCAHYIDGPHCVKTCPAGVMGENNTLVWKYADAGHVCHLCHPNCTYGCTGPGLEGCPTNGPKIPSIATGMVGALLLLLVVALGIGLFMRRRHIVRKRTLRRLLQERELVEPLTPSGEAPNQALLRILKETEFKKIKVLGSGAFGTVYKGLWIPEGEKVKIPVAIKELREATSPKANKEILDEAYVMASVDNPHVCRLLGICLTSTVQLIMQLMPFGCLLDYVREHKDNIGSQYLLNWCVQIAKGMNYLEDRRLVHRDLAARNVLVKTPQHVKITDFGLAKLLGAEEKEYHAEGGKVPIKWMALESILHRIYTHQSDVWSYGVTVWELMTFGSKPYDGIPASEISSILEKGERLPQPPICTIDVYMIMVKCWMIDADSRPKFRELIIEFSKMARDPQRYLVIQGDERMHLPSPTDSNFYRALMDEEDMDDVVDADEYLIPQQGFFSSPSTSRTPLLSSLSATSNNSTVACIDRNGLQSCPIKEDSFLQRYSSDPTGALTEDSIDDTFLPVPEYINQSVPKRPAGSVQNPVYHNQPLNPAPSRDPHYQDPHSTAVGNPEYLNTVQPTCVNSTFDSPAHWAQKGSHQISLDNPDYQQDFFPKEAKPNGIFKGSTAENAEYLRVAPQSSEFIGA

[11] = biological target: erbB4 (Homo sapiens, UniProt Q15303); assay: as above; type: biochemical; details: 10 μM ATP, duplicate
Chain of erbB4 (Q15303 26-1308): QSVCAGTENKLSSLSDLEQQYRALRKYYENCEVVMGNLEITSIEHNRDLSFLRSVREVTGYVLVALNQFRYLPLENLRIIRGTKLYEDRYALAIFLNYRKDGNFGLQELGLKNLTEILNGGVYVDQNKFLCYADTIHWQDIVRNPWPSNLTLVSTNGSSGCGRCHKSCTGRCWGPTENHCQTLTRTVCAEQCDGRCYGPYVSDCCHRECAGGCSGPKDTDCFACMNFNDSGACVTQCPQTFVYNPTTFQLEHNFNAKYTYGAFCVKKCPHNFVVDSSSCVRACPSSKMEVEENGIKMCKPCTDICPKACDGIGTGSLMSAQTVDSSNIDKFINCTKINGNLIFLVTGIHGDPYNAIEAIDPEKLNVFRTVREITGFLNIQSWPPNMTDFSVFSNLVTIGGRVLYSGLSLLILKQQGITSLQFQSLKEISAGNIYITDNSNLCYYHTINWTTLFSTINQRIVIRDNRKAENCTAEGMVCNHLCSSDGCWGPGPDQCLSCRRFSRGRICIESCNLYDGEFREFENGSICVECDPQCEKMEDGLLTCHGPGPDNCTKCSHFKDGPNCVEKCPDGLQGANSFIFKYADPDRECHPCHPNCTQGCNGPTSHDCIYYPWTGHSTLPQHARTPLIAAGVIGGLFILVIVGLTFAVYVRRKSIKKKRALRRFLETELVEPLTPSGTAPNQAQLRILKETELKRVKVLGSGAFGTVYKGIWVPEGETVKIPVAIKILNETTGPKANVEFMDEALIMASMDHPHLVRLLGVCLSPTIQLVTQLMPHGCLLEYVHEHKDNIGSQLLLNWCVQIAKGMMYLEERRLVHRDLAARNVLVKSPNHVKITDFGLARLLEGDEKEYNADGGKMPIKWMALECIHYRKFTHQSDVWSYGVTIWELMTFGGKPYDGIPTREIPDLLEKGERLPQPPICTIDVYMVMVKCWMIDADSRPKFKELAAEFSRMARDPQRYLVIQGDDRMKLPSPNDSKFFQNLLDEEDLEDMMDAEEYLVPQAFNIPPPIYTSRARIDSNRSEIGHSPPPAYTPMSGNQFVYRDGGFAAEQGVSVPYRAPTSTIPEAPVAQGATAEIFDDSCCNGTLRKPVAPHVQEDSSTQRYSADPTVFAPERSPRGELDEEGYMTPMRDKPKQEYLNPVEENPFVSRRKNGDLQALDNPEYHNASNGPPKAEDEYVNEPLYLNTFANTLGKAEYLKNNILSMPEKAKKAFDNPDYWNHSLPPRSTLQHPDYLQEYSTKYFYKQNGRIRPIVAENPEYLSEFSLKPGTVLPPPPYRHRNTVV
Method: as §1

[12] = tested on: H1975 cells; assay: Cellular growth inhibition (sulforhodamine B); type: cell-based, Human; details: Table 9; for IC50: Homo sapiens, NCI-H1975
Method: Human A431, BT474, SKBR3, SKOV3, SW620, H1975 and HT29 carcinoma cells in log phase exponential growth in alpha minimal essential media (αMEM) containing 5% fetal bovine serum (FBS), were harvested by trypsinisation (1× trypsin/EDTA, Gibco Brl), counted, and seeded into 96 well plates (Nunc) at cell densities ranging from 800-1500 cells/well. Half of the cell samples were seeded into plates that were pre-equilibrated and held in an anoxic environment (90% N2, 5% H2, 5% CO2, 37° Q Anaerobic chamber, Coy Laboratory Products). […] At the end of this period the anoxic plates were recovered from the anaerobic camber and held under normoxia in a standard CO2 incubator (37° C.) for 20 hours. All plates were washed free of compound and cells were allowed to proliferate for a further 4 days in αMEM containing 5% FBS+antibiotics. Cells were fixed in trichloroacteic acid (30 min), washed and stained with sulforhodamine B (SRB, 60 min) prior to washing in acidified water. SRB was solubilised and absorption read at 450 nm to calculate cell densities. Inhibition of proliferation was calculated relative to untreated control wells.
(§3) Human A431, H1975 and SKOV3 carcinoma cells in log phase exponential growth in alpha minimal essential media (αMEM) containing 5% fetal bovine serum (FBS), were harvested by trypsinisation (1× trypsin/EDTA, Gibco Brl), counted, and seeded into 96 well plates (Nunc) at cell densities ranging from 800-1500 cells/well. Half of the cell samples were seeded into plates that were pre-equilibrated and held in an anoxic environment (90% N2, 5% H2, 5% CO2, 37° C.; Anaerobic chamber, Coy Laboratory Products). […] At the end of this period the anoxic plates were recovered from the anaerobic camber and held under normoxia in a standard CO2 incubator (37° C.) for 20 hours. All plates were washed free of compound and cells were allowed to proliferate for a further 4 days in αMEM containing 5% FBS+antibiotics. Cells were fixed in trichloroacteic acid (30 min), washed and stained with sulforhodamine B (SRB, 60 min) prior to washing in acidified water. SRB was solubilised and absorption read at 450 nm to calculate cell densities. Inhibition of proliferation was calculated relative to untreated control wells.
They were then washed free of drug and incubated for a further 4 days, before being stained for cell survival with sulforhodamine B.

[13] = tested on: SKOV3 cells; assay: Cellular growth inhibition (sulforhodamine B); type: cell-based, Human; details: Table 9; for IC50: Homo sapiens, SK-OV-3
Method: as §3

[14] = Chemical stability by HPLC; details: HPLC after 24 h at 37° C.
[15] = physchem
[16] = tested on: H1975 xenografts; assay: In vivo efficacy in H1975 xenografts; design: species or system mice; details: H1975 xenografts, q3dx4 at respective MTD, IP
Method: Specific pathogen-free homozygous female NIH-III nude mice (Charles River Laboratories, Wilmington, Mass.) were inoculated subcutaneously with a single cell suspension of H1975 cells (5×10^6 cells/100 μL; right flank). When H1975 tumour xenografts were established (typically 8-12 days) mice were randomized to treatment groups. All compounds were prepared in lactate buffer (pH4). Mice were dosed by intraperitoneal injection (0.01-0.03 ml/g) using the stated schedules and dose levels. For growth delay experiments mice were randomized to treatment and tumor volume [π(length×width^2)/6] and body weight were measured daily following treatment. […] Differences in RTV^4 were tested for statistical difference by Mann Whitney U test using SigmaStat v3.5.

[17] = 24 hour exposure entirely oxic, read-out: Cellular Growth Inhibition IC50 SKBR3 Oxic
[18] = first 4 hours anoxic, read-out: Cellular Growth Inhibition IC50 SKBR3 Anoxic
[19] = A-431, 24 h, read-out: Cellular Growth Inhibition IC50 A431 Oxic
[20] = A-431, read-out: Cellular Growth Inhibition IC50 A431 Anoxic
[21] = HPLC-MS at 0.95 reducing equivalents
[22] = 24 hour exposure entirely oxic, read-out: Cellular Growth Inhibition IC50 SW620 Oxic
[23] = first 4 hours anoxic, read-out: Cellular Growth Inhibition IC50 SW620 Anoxic

Compound	IC50 [1, 17]	IC50 [1, 18]	SKBR3 Deact. [1]	SKBR3 HCR [1]	IC50 [2]	IC50 [3, 19]	IC50 [3, 20]	A431 Deact. (fold reduction in oxic growth inhibition relative to parent kinase inhibitor) [3]	A431 HCR (Hypoxic Cytotoxicity Ratio) [3]	IC50 [4]	Detection of MNA (methyl nitroaromatic) [5]	% Loss of prodrug [5, 21]	release of effector following 1-electron reduction [5]	E (1)/V (one-electron reduction potential) [6]	hypoxia-selective inhibition of p-erbB1 [7]	IC50 [8, 22]	IC50 [8, 23]	SW620 Deact. [8]	SW620 HCR [8]	IC50 [9]	further results
C[N+](C)(C/C=C/C(=O)Nc1ccc2ncnc(Nc3cccc(Br)c3)c2c1)Cc1ccc([N+](=O)[O-])cc1 [Compound 17, (2E)-4-{[4-(3-bromoanilino)-6-quinazolinyl]amino}-N,N-dimethyl-N-(4-nitrobenzyl)-4-oxo-2-buten-1-ammonium bromide]	1.52 µM	1.84 µM	19 fold	0.8 fold	0.11 µM	0.462 µM	0.444 µM	12 fold	1.0 fold	0.00056 µM	No	33%	did not release their respective effector compounds	−0.408 V	no apparent hypoxia-selective inhibition	112 µM	112 µM	33 fold	1.0 fold		
C[N+](C)(C/C=C/C(=O)Nc1ccc2ncnc(Nc3cccc(Br)c3)c2c1)Cc1ccccc1[N+](=O)[O-] [Compound 18, (2E)-4-{[4-(3-bromoanilino)-6-quinazolinyl]amino}-N,N-dimethyl-N-(2-nitrobenzyl)-4-oxo-2-buten-1-ammonium bromide]	3.75 µM	1.29 µM	44 fold	2.8 fold	0.123 µM	2.34 µM	0.401 µM	59 fold	5.8 fold	0.0002 µM	No	33%	did not release their respective effector compounds	−0.388 V	no apparent hypoxia-selective inhibition	92.2 µM	79.8 µM	27 fold	1.2 fold		
Cn1ncc([N+](=O)[O-])c1C[N+](C)(C)C/C=C/C(=O)Nc1ccc2ncnc(Nc3cccc(Br)c3)c2c1 [Compound 22, (2E)-4-{[4-(3-bromoanilino)-6-quinazolinyl]amino}-N,N-dimethyl-N-[(1-methyl-4-nitro-1H-pyrazol-5-yl)methyl]-4-oxo-2-buten-1-ammonium bromide]	11 µM	1.64 µM	136 fold	6.7 fold	0.135 µM	5.86 µM	0.564 µM	147 fold	10.4 fold	0.00046 µM	No	35%	did not release their respective effector compounds	−0.449 V	no apparent hypoxia-selective inhibition	281 µM	123 µM	82 fold	2.3 fold	1.39 µM	Effector release/Prodrug loss ([5]; 0.95 reducing equivalents): 0.49; % Release of effector [5, 21]: 17%; Deact. (fold reduction in cellular erbB1 inhibition relative to the parent kinase inhibitor) ([9]; A431 cells): 151 fold
Cn1cnc([N+](=O)[O-])c1C[N+](C)(C)CCCC(=O)Nc1ccc2ncnc(Nc3cccc(Br)c3)c2c1 [Compound 27, 4-{([4-(3-bromoanilino)-6-quinazolinyl]amino}-N,N-dimethyl-N-[(1-methyl-4-nitro-1H-imidazol-5-yl)methyl]-4-oxo-1-butanaminium bromide]	507 µM	74.3 µM	159 fold	7.6 fold	0.191 µM	255 µM	76.1 µM	203 fold	3.4 fold	0.00064 µM						684 µM	585 µM	37 fold	1.2 fold	3.6 µM	IC50 [10]: 0.798 µM; IC50 [11]: 0.174 µM; Deact. (fold reduction in cellular erbB1 inhibition relative to the parent kinase inhibitor) ([9]; A431 cells): 201 fold
C#Cc1cccc(Nc2ncnc3cnc(NC(=O)/C=C/C[N+](C)(C)Cc4c([N+](=O)[O-])ncn4C)cc23)c1 [Compound 58, (2E)-4-{[4-(3-ethynylanilino)pyrido[3,4-d]pyrimidin-6-yl]amino}-N,N-dimethyl-N-[(1-methyl-4-nitro-1H-imidazol-5-yl)methyl]-4-oxo-2-buten-1-ammonium bromide]						2 µM														0.513 µM	IC50 ([12]; 24 hour exposure oxic, read-out: Cellular Growth Inhibition IC50 H1975 Oxic): 98.9 µM; IC50 ([12]; first 4 hours anoxic, read-out: Cellular Growth Inhibition IC50 H1975 Anoxic): 3.81 µM; H1975 Deact. [12]: 86 fold; H1975 HCR [12]: 77.7 fold; IC50 ([3]; A-431, 4 h, read-out: Cellular Growth Inhibition IC50 A431 Anoxic): 0.035 µM; A431 Deact. ([3]; Table 9): 74 fold; A431 HCR ([3]; Table 9): 77.9 fold; IC50 ([13]; 24 hour exposure oxic, read-out: Cellular Growth Inhibition IC50 SKOV3 Oxic): 73.1 µM; IC50 ([13]; first 4 hours anoxic, read-out: Cellular Growth Inhibition IC50 SKOV3 Anoxic): 2.51 µM; SKOV3 Deact. [13]: 133 fold; SKOV3 HCR [13]: 38.5 fold; Stability PBS (percentage parent remaining) [14]: 78%; Stability Water (percentage parent remaining) [14]: 98%; Stability α-MEM + FCS (5%) (percentage parent remaining) [14]: 61%; solubility ([15]; aqueous buffer): > 1280 µM; solubility ([15]; water): > 1280 µM; tumour growth inhibition (TGI) [16]: 171%; Deact. erbB1 (fold reduction in cellular inhibition relative to the parent kinase inhibitor) ([9]; Table 8, A431 cells): 64 fold
